Reference: ChEMBL document CHEMBL1201861, “Genomics of Drug Sensitity in Cancer screening data, Wellcome Trust Sanger Institute”

Assays:
Experiment in all cases: cells
RO82-W-1 = assay type: functional, cell-based, Homo sapiens; settings: Homo sapiens, RO82-W-1;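 note: growth inhibition of human RO82-W-1 cells, measured with a cell viability assay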
Description: SANGER: Inhibition of human RO82-W-1 cell growth in a cell viability assay.

COLO-792 = assay type: functional, cell-based, Homo sapiens; settings: Homo sapiens, COLO-792
Description: SANGER: Inhibition of human COLO-792 cell growth in a cell viability assay.

SNU-C2B = assay type: functional, cell-based, Homo sapiens; settings: Homo sapiens, SNU-C2B;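 note: cell viability readout used to measure compound-driven suppression of SNU-C2B cell proliferation, IC50 marking half-maximal growth inhibition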
Description: SANGER: Inhibition of human SNU-C2B cell growth in a cell viability assay.

MOLT-4 = assay type: functional, cell-based; settings: Homo sapiens;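 note: growth inhibition of MOLT-4 cells, determined with a cell viability readout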
Description: SANGER: Inhibition of human MOLT-4 cell growth in a cell viability assay.

ES8 = assay type: functional, cell-based, Homo sapiens; settings: Homo sapiens, ES8;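 note: growth inhibition of human ES8 cells, read out with a cell viability assay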
Description: SANGER: Inhibition of human ES8 cell growth in a cell viability assay.

MKN-7 = assay type: functional, cell-based, Homo sapiens; settings: Homo sapiens, MKN-7;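 note: growth inhibition of MKN-7 cells, read out with a cell viability assay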
Description: SANGER: Inhibition of human MKN7 cell growth in a cell viability assay.

COLO-824 = assay type: functional, cell-based, Homo sapiens; settings: Homo sapiens, COLO-824
Description: SANGER: Inhibition of human COLO-824 cell growth in a cell viability assay.

HCC70 = assay type: functional, cell-based, Homo sapiens; settings: Homo sapiens, HCC70;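 note: cell viability assay measuring how strongly the compound suppresses proliferation of HCC70 cells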
Description: SANGER: Inhibition of human HCC70 cell growth in a cell viability assay.

NCI-H1355 = assay type: functional, cell-based, Homo sapiens; settings: Homo sapiens, NCI-H1355;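 note: growth inhibition of human NCI-H1355 cells, read out by a cell viability assay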
Description: SANGER: Inhibition of human NCI-H1355 cell growth in a cell viability assay.

SW1088 = assay type: functional, cell-based, Homo sapiens; settings: Homo sapiens, SW1088;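 note: growth inhibition of human SW1088 cells, read out by a cell viability assay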
Description: SANGER: Inhibition of human SW1088 cell growth in a cell viability assay.

769-P = assay type: functional, cell-based, Homo sapiens; settings: Homo sapiens, 769-P
Description: SANGER: Inhibition of human 769-P cell growth in a cell viability assay.

NTERA-2-cl-D1 = assay type: functional, cell-based, Homo sapiens; settings: Homo sapiens, NTERA-2-cl-D1;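 note: inhibition of cell growth, measured with a cell viability assay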
Description: SANGER: Inhibition of human NTERA-S-cl-D1 cell growth in a cell viability assay.

CAKI-1 = assay type: functional, cell-based, Homo sapiens; settings: Homo sapiens, CAKI-1;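 note: growth inhibition of CAKI-1 cells, measured by a cell viability assay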
Description: SANGER: Inhibition of human CAKI-1 cell growth in a cell viability assay.

HOP-62 = assay type: functional, cell-based, Homo sapiens; settings: Homo sapiens, HOP-62;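 note: cell growth inhibition determined with a viability assay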
Description: SANGER: Inhibition of human HOP-62 cell growth in a cell viability assay.

TYK-nu = assay type: functional, cell-based, Homo sapiens; settings: Homo sapiens, TYK-nu;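 note: growth inhibition of human TYK-nu cells, read out by a cell viability assay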
Description: SANGER: Inhibition of human TYK-nu cell growth in a cell viability assay.

NCI-H1155 = assay type: functional, cell-based; settings: Homo sapiens;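 note: cell growth inhibition measured by a viability assay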
Description: SANGER: Inhibition of human NCI-H1155 cell growth in a cell viability assay.

A2058 = assay type: functional, cell-based; settings: Homo sapiens;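 note: reduction of A2058 cell growth, read out with a viability assay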
Description: SANGER: Inhibition of human A2058 cell growth in a cell viability assay.

KU812 cell line = assay type: functional, cell-based; settings: Homo sapiens;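 note: growth inhibition of KU812 cells, read out with a cell viability assay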
Description: SANGER: Inhibition of human KU812 cell growth in a cell viability assay.

MDA-MB-231 = assay type: functional, cell-based, Homo sapiens; settings: Homo sapiens, MDA-MB-231
Description: SANGER: Inhibition of human MDA-MB-231 cell growth in a cell viability assay.

PANC-03-27 = assay type: functional, cell-based, Homo sapiens; settings: Homo sapiens, PANC-03-27
Description: SANGER: Inhibition of human PANC-03-27 cell growth in a cell viability assay.

KYSE-270 = assay type: functional, cell-based, Homo sapiens; settings: Homo sapiens, KYSE-270;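 note: cell growth inhibition measured with a viability assay in the human KYSE-270 line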
Description: SANGER: Inhibition of human KYSE-270 cell growth in a cell viability assay.

J82 = assay type: functional, cell-based; settings: Homo sapiens;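 note: growth inhibition of J82 cells, read out with a cell viability assay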
Description: SANGER: Inhibition of human J82 cell growth in a cell viability assay.

EW-13 = assay type: functional, cell-based; settings: Homo sapiens;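 note: growth inhibition of EW-13 cells, read out with a cell viability assay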
Description: SANGER: Inhibition of human EW-13 cell growth in a cell viability assay.

ES7 = assay type: functional, cell-based, Homo sapiens; settings: Homo sapiens, ES7;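 note: growth inhibition of cultured human ES7 cells, read out as cell viability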
Description: SANGER: Inhibition of human ES7 cell growth in a cell viability assay.

RMG-I = assay type: functional, cell-based, Homo sapiens; settings: Homo sapiens, RMG-I;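 note: growth inhibition of human RMG-I cells, read out with a cell viability assay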
Description: SANGER: Inhibition of human RMG-I cell growth in a cell viability assay.

COLO-668 = assay type: functional, cell-based, Homo sapiens; settings: Homo sapiens, COLO-668
Description: SANGER: Inhibition of human COLO-668 cell growth in a cell viability assay.

YAPC = assay type: functional, cell-based, Homo sapiens; settings: Homo sapiens, YAPC;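 note: growth inhibition of YAPC cells, measured with a cell viability assay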
Description: SANGER: Inhibition of human YAPC cell growth in a cell viability assay.

HGC-27 = assay type: functional, cell-based, Homo sapiens; settings: Homo sapiens, HGC-27;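 note: growth inhibition of human HGC-27 cells, read out in a cell viability assay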
Description: SANGER: Inhibition of human HGC-27 cell growth in a cell viability assay.

MDA-MB-157 = assay type: functional, cell-based, Homo sapiens; settings: Homo sapiens, MDA-MB-157
Description: SANGER: Inhibition of human MDA-MB-157 cell growth in a cell viability assay.

COLO-320-HSR = assay type: functional, cell-based; settings: Homo sapiens;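 note: growth inhibition of COLO-320-HSR cells, determined with a cell viability assay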
Description: SANGER: Inhibition of human COLO-320-HSR cell growth in a cell viability assay.

SW48 = assay type: functional, cell-based, Homo sapiens; settings: Homo sapiens, SW48;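 note: growth inhibition of SW48 cells, read out with a cell viability assay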
Description: SANGER: Inhibition of human SW48 cell growth in a cell viability assay.

HCC1806 = assay type: functional, cell-based, Homo sapiens; settings: Homo sapiens, HCC1806;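 note: growth inhibition of the cancer cell line, determined with a cell viability assay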
Description: SANGER: Inhibition of human HCC1806 cell growth in a cell viability assay.

D-542MG = assay type: functional, cell-based, Homo sapiens; settings: Homo sapiens, D-542MG
Description: SANGER: Inhibition of human D-542MG cell growth in a cell viability assay.

EFO-21 = assay type: functional, cell-based, Homo sapiens; settings: Homo sapiens, EFO-21;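 note: growth inhibition of EFO-21 cells measured with a viability assay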
Description: SANGER: Inhibition of human EFO-21 cell growth in a cell viability assay.

Daoy = assay type: functional, cell-based, Homo sapiens; settings: Homo sapiens, Daoy;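 note: daoy cell growth inhibition, read out as cell viability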
Description: SANGER: Inhibition of human Daoy cell growth in a cell viability assay.

LoVo = assay type: functional, cell-based; settings: Homo sapiens;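 note: growth inhibition of human LoVo cells, read out with a cell viability assay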
Description: SANGER: Inhibition of human LoVo cell growth in a cell viability assay.

SW982 = assay type: functional, cell-based; settings: Homo sapiens;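 note: growth inhibition of SW982 cells, read out with a cell viability assay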
Description: SANGER: Inhibition of human SW982 cell growth in a cell viability assay.

HCC1937 = assay type: functional, cell-based, Homo sapiens; settings: Homo sapiens, HCC1937;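 note: growth inhibition measured with a cell viability read-out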
Description: SANGER: Inhibition of human HCC1937 cell growth in a cell viability assay.

D-263MG = assay type: functional, cell-based, Homo sapiens; settings: Homo sapiens, D-263MG
Description: SANGER: Inhibition of human D-263MG cell growth in a cell viability assay.

NCI-H2030 = assay type: functional, cell-based, Homo sapiens; settings: Homo sapiens, NCI-H2030;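 note: growth inhibition of human NCI-H2030 cells, read out by a cell viability assay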
Description: SANGER: Inhibition of human NCI-H2030 cell growth in a cell viability assay.

BT-474 = assay type: functional, cell-based, Homo sapiens; settings: Homo sapiens, BT-474
Description: SANGER: Inhibition of human BT-474 cell growth in a cell viability assay.

HD-MY-Z = assay type: functional, cell-based, Homo sapiens; settings: Homo sapiens, HD-MY-Z;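 note: growth inhibition of HD-MY-Z cells, read out with a cell viability assay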
Description: SANGER: Inhibition of human HD-MY-Z cell growth in a cell viability assay.

TE-6 = assay type: functional, cell-based, Homo sapiens; settings: Homo sapiens, TE-6;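 note: growth inhibition of TE-6 cells, read out with a cell viability assay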
Description: SANGER: Inhibition of human TE-6 cell growth in a cell viability assay.

COLO-680N = assay type: functional, cell-based, Homo sapiens; settings: Homo sapiens, COLO-680N;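 note: cell viability assay used to measure inhibition of COLO-680N cell growth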
Description: SANGER: Inhibition of human COLO-680N cell growth in a cell viability assay.

NCI-H28 = assay type: functional, cell-based, Homo sapiens; settings: Homo sapiens, NCI-H28;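 note: growth inhibition of human NCI-H28 cells, read out as cell viability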
Description: SANGER: Inhibition of human NCI-H28 cell growth in a cell viability assay.

C2BBe1 = assay type: functional, cell-based, Homo sapiens; settings: Homo sapiens, C2BBe1;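 note: growth inhibition of C2BBe1 cells, read out through a viability assay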
Description: SANGER: Inhibition of human C2BBe1 cell growth in a cell viability assay.

MG-63 = assay type: functional, cell-based, Homo sapiens; settings: Homo sapiens, MG-63;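 note: growth inhibition of human MG-63 cells, read out with a cell viability assay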
Description: SANGER: Inhibition of human MG-63 cell growth in a cell viability assay.

EW-1 = assay type: functional, cell-based, Homo sapiens; settings: Homo sapiens, EW-1
Description: SANGER: Inhibition of human EW-1 cell growth in a cell viability assay.

HuO-3N1 = assay type: functional, cell-based, Homo sapiens; settings: Homo sapiens, HuO-3N1;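 note: cell viability readout used to measure how strongly compounds suppress proliferation of human HuO-3N1 cells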
Description: SANGER: Inhibition of human HuO-3N1 cell growth in a cell viability assay.

ABC-1 = assay type: functional, cell-based, Homo sapiens; settings: Homo sapiens, ABC-1;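 note: growth inhibition of human ABC-1 cells, read out by a cell viability assay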
Description: SANGER: Inhibition of human ABC-1 cell growth in a cell viability assay.

In the case of `C=CCc1cccc(/C=N/NC(=O)CN2CCN(Cc3ccccc3)CC2)c1O` [PAC-1], the IC50 (RO82-W-1) is reported as > 2.56 µM, the IC50 (COLO-792) is reported as > 2.56 µM and the IC50 (SNU-C2B) is reported as > 2.56 µM. For the same compound, the IC50 (MOLT-4) was > 2.56 µM, the IC50 (ES8) was > 2.56 µM and the IC50 (MKN-7) was > 2.56 µM. The IC50 (COLO-824) was > 2.56 µM, the IC50 (HCC70) was > 2.56 µM and the IC50 (NCI-H1355) was > 2.56 µM. For the same compound, the IC50 (SW1088) was > 2.56 µM, the IC50 (769-P) was > 2.56 µM and the IC50 (NTERA-2-cl-D1) was > 2.56 µM. For the same compound, the IC50 (CAKI-1) was > 2.56 µM, the IC50 (HOP-62) was 2.54 µM and the IC50 (TYK-nu) was > 2.56 µM. The IC50 (NCI-H1155) was > 2.56 µM, the IC50 (A2058) was > 2.56 µM and the IC50 (KU812 cell line) was > 2.56 µM. For the same compound, the IC50 (MDA-MB-231) was > 2.56 µM, the IC50 (PANC-03-27) was 0.76 µM and the IC50 (KYSE-270) was 2.46 µM. For the same compound, the IC50 (J82) was > 2.56 µM, the IC50 (EW-13) was > 2.56 µM and the IC50 (ES7) was > 2.56 µM. The IC50 (RMG-I) was > 2.56 µM, the IC50 (COLO-668) was > 2.56 µM and the IC50 (YAPC) was > 2.56 µM. For the same compound, the IC50 (HGC-27) was > 2.56 µM, the IC50 (MDA-MB-157) was > 2.56 µM and the IC50 (COLO-320-HSR) was > 2.56 µM. For the same compound, the IC50 (SW48) was > 2.56 µM, the IC50 (HCC1806) was > 2.56 µM and the IC50 (D-542MG) was > 2.56 µM. For the same compound, the IC50 (EFO-21) was > 2.56 µM, the IC50 (Daoy) was 2.19 µM and the IC50 (LoVo) was > 2.56 µM. The IC50 (SW982) was > 2.56 µM, the IC50 (HCC1937) was > 2.56 µM and the IC50 (D-263MG) was > 2.56 µM. For the same compound, the IC50 (NCI-H2030) was > 2.56 µM, the IC50 (BT-474) was > 2.56 µM and the IC50 (HD-MY-Z) was > 2.56 µM. The IC50 (TE-6) was > 2.56 µM, the IC50 (COLO-680N) was > 2.56 µM and the IC50 (NCI-H28) was > 2.56 µM. The IC50 (C2BBe1) was > 2.56 µM, the IC50 (MG-63) was > 2.56 µM and the IC50 (EW-1) was > 2.56 µM. The IC50 (HuO-3N1) was > 2.56 µM and the IC50 (ABC-1) was > 2.56 µM.
With `Cc1ccc(Nc2nccc(N(C)c3ccc4c(C)n(C)nc4c3)n2)cc1S(N)(=O)=O` [PAZOPANIB] the IC50 (RO82-W-1) was > 8 µM, the IC50 (COLO-792) was > 8 µM and the IC50 (SNU-C2B) was > 8 µM. For the same compound, the IC50 (MOLT-4) was > 8 µM, the IC50 (ES8) was > 8 µM and the IC50 (MKN-7) was > 8 µM. The IC50 (COLO-824) was > 8 µM, the IC50 (HCC70) was > 8 µM and the IC50 (NCI-H1355) was > 8 µM. For the same compound, the IC50 (SW1088) was > 8 µM, the IC50 (769-P) was > 8 µM and the IC50 (NTERA-2-cl-D1) was > 8 µM. The IC50 (CAKI-1) was > 8 µM, the IC50 (HOP-62) was > 8 µM and the IC50 (TYK-nu) was > 8 µM. For the same compound, the IC50 (NCI-H1155) was > 8 µM, the IC50 (A2058) was > 8 µM and the IC50 (KU812 cell line) was 5.38 µM. The IC50 (MDA-MB-231) was > 8 µM, the IC50 (PANC-03-27) was > 8 µM and the IC50 (KYSE-270) was > 8 µM. For the same compound, the IC50 (J82) was 2.06 µM, the IC50 (EW-13) was > 8 µM and the IC50 (ES7) was > 8 µM. For the same compound, the IC50 (RMG-I) was > 8 µM, the IC50 (COLO-668) was > 8 µM and the IC50 (YAPC) was > 8 µM. The IC50 (HGC-27) was 6.2 µM, the IC50 (MDA-MB-157) was > 8 µM and the IC50 (COLO-320-HSR) was > 8 µM. For the same compound, the IC50 (SW48) was > 8 µM, the IC50 (HCC1806) was > 8 µM and the IC50 (D-542MG) was > 8 µM. For the same compound, the IC50 (EFO-21) was > 8 µM, the IC50 (Daoy) was 4.78 µM and the IC50 (LoVo) was > 8 µM. The IC50 (SW982) was > 8 µM, the IC50 (HCC1937) was > 8 µM and the IC50 (D-263MG) was > 8 µM. For the same compound, the IC50 (NCI-H2030) was > 8 µM, the IC50 (BT-474) was > 8 µM and the IC50 (HD-MY-Z) was > 8 µM. For the same compound, the IC50 (TE-6) was > 8 µM, the IC50 (COLO-680N) was > 8 µM and the IC50 (NCI-H28) was > 8 µM. The IC50 (C2BBe1) was > 8 µM, the IC50 (MG-63) was 1 µM and the IC50 (EW-1) was > 8 µM. For the same compound, the IC50 (HuO-3N1) was > 8 µM and the IC50 (ABC-1) was > 8 µM.
For `CN(c1ncccc1CNc1nc(Nc2ccc3c(c2)CC(=O)N3)ncc1C(F)(F)F)S(C)(=O)=O` [PF-00562271], the IC50 (RO82-W-1) was > 2.56 µM, the IC50 (COLO-792) was > 2.56 µM and the IC50 (SNU-C2B) was > 2.56 µM. For the same compound, the IC50 (MOLT-4) was > 2.56 µM, the IC50 (ES8) was > 2.56 µM and the IC50 (MKN-7) was > 2.56 µM. The IC50 (COLO-824) was > 2.56 µM, the IC50 (HCC70) was > 2.56 µM and the IC50 (NCI-H1355) was > 2.56 µM. For the same compound, the IC50 (SW1088) was > 2.56 µM, the IC50 (769-P) was > 2.56 µM and the IC50 (NTERA-2-cl-D1) was > 2.56 µM. The IC50 (CAKI-1) was > 2.56 µM, the IC50 (HOP-62) was > 2.56 µM and the IC50 (TYK-nu) was > 2.56 µM. The IC50 (NCI-H1155) was > 2.56 µM, the IC50 (A2058) was > 2.56 µM and the IC50 (KU812 cell line) was > 2.56 µM. The IC50 (MDA-MB-231) was 2.5 µM, the IC50 (PANC-03-27) was > 2.56 µM and the IC50 (KYSE-270) was 1.05 µM. For the same compound, the IC50 (J82) was > 2.56 µM, the IC50 (EW-13) was 1.63 µM and the IC50 (ES7) was > 2.56 µM. The IC50 (RMG-I) was > 2.56 µM, the IC50 (COLO-668) was > 2.56 µM and the IC50 (YAPC) was > 2.56 µM. For the same compound, the IC50 (HGC-27) was > 2.56 µM, the IC50 (MDA-MB-157) was > 2.56 µM and the IC50 (COLO-320-HSR) was > 2.56 µM. The IC50 (SW48) was > 2.56 µM, the IC50 (HCC1806) was > 2.56 µM and the IC50 (D-542MG) was > 2.56 µM. The IC50 (EFO-21) was > 2.56 µM, the IC50 (Daoy) was > 2.56 µM and the IC50 (LoVo) was > 2.56 µM. The IC50 (SW982) was 0.328 µM, the IC50 (HCC1937) was > 2.56 µM and the IC50 (D-263MG) was > 2.56 µM. For the same compound, the IC50 (NCI-H2030) was > 2.56 µM, the IC50 (BT-474) was > 2.56 µM and the IC50 (HD-MY-Z) was > 2.56 µM. For the same compound, the IC50 (TE-6) was > 2.56 µM, the IC50 (COLO-680N) was > 2.56 µM and the IC50 (NCI-H28) was > 2.56 µM. The IC50 (C2BBe1) was > 2.56 µM, the IC50 (MG-63) was 0.806 µM and the IC50 (EW-1) was > 2.56 µM. For the same compound, the IC50 (HuO-3N1) was > 2.56 µM and the IC50 (ABC-1) was 2.25 µM.
